Source: patent US8021848B2, “Rapid and sensitive detection of cells and viruses” (Straus Holdings Inc., priority 2001, dated 2011)

Experiments:
[1] = system: E. coli MG1655 (sensitive strain); experiment: Rapid antimicrobial susceptibility testing (broth dilution, large area CCD imaging); type: cell-based; conditions: after 4 hours of growth; comparable by CCD imaging, liquid culture or colony counting
Description: (§1) Cells of two strains, one resistant and one sensitive, were tested for their ability to grow in a period of several hours in the antibiotic. Growth was detected by large area imaging of individual cells stained with a fluorescent nucleic acid stain.
(§2) Experimental procedure. […] Also at these times points both a visible turbidity growth check and a plate count were performed. The turbidity check was performed according to NCCLS broth dilution guidelines. A “+” was recorded for a turbid culture and a “−” for non-turbid culture. The 1 ml aliquots were then stained with Syber Green I as in Example 2. Aliquots (10 μl) of the stained cells were placed in separate wells (with optically clear bottoms) of a 96 well plate (Greiner America, Inc.; cat. num. 655896), which contained 90 μl of water (Type I quality). The plates were spun in a centrifuge (Beckman Allegra) for 10 min at 600 g and then imaged. Fluorescence was detected by imaging using a CCD imager (described in Step 6 of Detailed description section and shown in FIG. 3) with an FITC optical filter set (Chroma/excitation 470/40 nm, emission 522/40 nm). Image-Pro Plus software, version 4.1 (Media cybernetics) was used to capture and process images from the CCD Imager.

[2] = system: E. coli MG1655/pLAFRI (resistant strain); conditions: after 4 hours of growth; comparable by CCD imaging, liquid culture or colony counting
Description: as §1, §2

Structure (SMILES): CN(C)[C@@H]1C(O)=C(C(N)=O)C(=O)[C@@]2(O)C(O)=C3C(=O)c4c(O)cccc4[C@@](C)(O)[C@H]3C[C@@H]12 [tetracycline]
- antibiotic concentration that inhibited growth of the antibiotic sensitive strain [1]: 0.25 µg/mL
- antibiotic concentration in which dramatic growth of the resistant strain was evident [2]: 64 µg/mL
